Data published in patent US20240148664A1, “LIPID AND COMPOSITION” (SOGO PHARMACEUTICAL CO., LTD., priority 2021, published 2024).

Experiments:
Format in all cases: cell-based
[1] = system: HT1080-EGFP (human/fibrosarcoma) cells; experiment: Evaluation of toxicity: LDH assay; conditions: lipid nanoparticle containing siRNA; absorbance relative to control cells without lipid nanoparticle set at 1.00
Protocol: A. Provision of Cells • (i) A liquid medium (DMEM/Ham's F12, FBS+, P/S+) (FBS: fetal bovine serum, P/S: antibiotic) was taken out from a refrigerator and temperature-controlled in an incubator set at 37° C. • (ii) A cryotube containing the cells was taken out from a −80° C. freezer and thawed at once in an incubator set at 37° C. • (iii) A stock solution of the thawed cells was collected in a capped test tube. • (iv) The tube containing the cells was washed with the liquid medium, and the wash was also collected in the test tube. • (v) The tube was subjected to a centrifuge to precipitate the cells. • (vi) The supernatant was aspirated, and the liquid medium was added and gently tapped to disperse the cells. • (vii) A small amount of the cells-dispersed liquid medium was collected, and the number of cells was observed and counted under a microscope. • (viii) The cells were seeded in a 24-well plate such that the number of cells was 2×10^4 cells per well. For the plate for an LDH assay described later, the cells were seeded in a 96-well plate such that the number of cells was 4×10^3 cells per well. • (ix) The 24-well plate or the 96-well plate was placed in an incubator, and the cells were cultured for 24 hours under conditions of 37° C. and 5% CO2.
The introduction of lipid nanoparticles into cells for an LDH assay described later was carried out as follows. • (i) A 96-well plate was taken out from an incubator. • (ii) The liquid medium supernatant in the 96-well plate was aspirated and washed with phosphate buffered saline (PBS). • (iii) 160 μL of a liquid medium containing 10% FBS (FBS+/P/S+) was added to the washed 96-well plate. In addition, 40 μL of an LNP solution having an adjusted concentration was added. • (iv) The 96-well plate was placed in the incubator, and the cells were cultured for 24 hours under conditions of 37° C. and 5% CO2.
For Examples 1 to 9, a CCK-8 assay or an LDH assay was carried out to measure the metabolic activity of viable cells and relatively quantify the number of surviving cells to evaluate the toxicity of lipid nanoparticles.
An LDH assay was carried out by using a viable cell counting kit (DOJINDO LABORATORIES, Cytotoxicity LDH Assay Kit-WST) as follows. • (i) 20 μL of a lysis buffer was added to each of positive control wells and incubated at 37° C. for 30 minutes in an incubator. • (ii) 100 μL of the supernatant was taken from each well and transferred to a 96-well plate for measurement. • (iii) 100 μL of the reagent mixture attached to the kit was added to all the wells, and a color reaction was carried out for 30 minutes at room temperature with exclusion of light. • (iv) 50 μL of the stop solution reagent attached to the kit was added to all the wells. • (v) The 96-well plate was measured under conditions of a measurement wavelength of 490 nm and a target wavelength of 630 nm with a plate reader (manufactured by TECAN, Infinite M200) to calculate the absorbance. The absorbance was calculated with the absorbance of control cells to which no lipid nanoparticle was added set at 1.00. When the obtained value was 0.50 or less, a rating of double-circle (excellent) was given, when the obtained value was more than 0.50 and 1.0 or less, a rating of circle (good) was given, when the obtained value was more than 1.0 and less than 6.0, a rating of triangle (fair) was given, and when the obtained value was 6.0 or more, a rating of X-mark (poor) was given.

NIH3T3 cells = experiment: Evaluation of protein expression effect (luciferase luminescence), Cell experiment 2; conditions: lipid nanoparticle containing mRNA, 100 ng mRNA/20 μL per well, 24 hours, amount of luminescence as index
Protocol: (§1) For lipids (Ia), (Ib), and (Ie) of Examples 1, 2, and 5, a cell experiment was carried out by using HEK293T cells and NIH3T3 cells in order to evaluate lipid nanoparticles encapsulating an mRNA. By transfecting the cells with lipid nanoparticles and measuring the amount of a predetermined protein produced, the performance of the lipid nanoparticles used can be evaluated. Hereinafter, the procedure of the cell experiment will be shown.
(§2) A. Seeding of Cells • (i) A liquid medium (DMEM High glucose, FBS+, P/S+) was temperature-controlled in an incubator set at 37° C. • (ii) A cryotube containing cells was taken out from a −80° C. freezer and thawed at once in the incubator set at 37° C. • (iii) A test tube was subjected to a centrifuge to precipitate the cells. • (iv) The supernatant was aspirated, and the liquid medium was added and gently tapped to disperse the cells. • (v) A small amount of the cells-dispersed liquid medium was collected, and the number of cells was observed and counted under a microscope. • (vi) The cells were seeded in three 24-well black plates such that the number of cells was 1×10^4 cells per well. The 24-well black plates were placed in an incubator, and the cells were cultured for 24 hours under conditions of 37° C. and 5% CO2.
(§3) B. Transfection • (i) A lipid nanoparticle-containing solution including an mRNA was concentrated such that the mRNA concentration was 100 ng/20 μL (=0.005 μg/μL). • (ii) A liquid medium (DMEM High glucose, FBS-, P/S-) and FBS were warmed to 37° C., required amounts of the liquid medium and FBS were mixed (FBS concentration of liquid medium at this time: 12.5%), and the prepared liquid medium was filter-sterilized through a 0.22 μm filter. • (iii) The liquid medium supernatant in the 24-well black plates in which the cells were cultured was aspirated and 80 μL per well of the prepared liquid medium was added. • (iv) 20 μL per well of RFW and the lipid nanoparticle-containing solution adjusted to the above concentration was added. • (v) The 24-well black plates were placed in an incubator, and the cells were cultured for 24 hours under conditions of 37° C. and 5% CO2.
(§4) C. Evaluation of Protein Expression Effect (Detection of Gaussia Luciferase (GLuc))
(§5) Evaluation of the protein expression effect was carried out by using Gaussia Luciferase Assay Kit manufactured by Thermo Scientific. • (i) The cells cultured in B. (v) above were taken out from the incubator and allowed to stand at room temperature. • (ii) 20 μL of the supernatant in the plates was collected and added to a fresh 96-well white plate. • (iii) 100× Coelenterazine and Gaussia Glow Assay Buffer attached to the kit were returned to room temperature and mixed at 1:100 to prepare a solution. The prepared solution was added to the supernatant at 50 μL per well by using a multipipette. • (iv) The plate was shielded from light with aluminum foil, allowed to stand for 10 minutes, and then measured for the amount of luminescence with a plate reader (manufactured by TECAN, Infinite M200) (measurement time: 2 seconds), and the protein expression level was calculated by using the resulting amount of luminescence as an index.

HEK293T cells = experiment: as above; conditions: lipid nanoparticle containing mRNA, 100 ng mRNA/20 μL per well, 24 hours, amount of luminescence as index
Protocol: as §1, §2, §3, §4, §5

SMILES | LDH Assay [1] | Protein expression level (NIH3T3 cells) | Protein expression level (HEK293T cells)
CCCCCCCC/C=C\CCCCCCCCC(CCCCCCC/C=C\CCCCCCCC)OC(=O)C(CC(=O)O)NC(=N)N (stereo not shown) [Comparative Example 2, 3-guanidino-4-(((9Z,27Z)-hexatriaconta-9,27-dien-18-yl)oxy)-4-oxobutanoic acid, reference compound] | ⊚ (When the obtained value was 0.50 or less, a rating of double-circle (excellent) was given) | – | –
CCCCCCCC/C=C\CCCCCCCCC(CCCCCCC/C=C\CCCCCCCC)OC(=O)C(CCC(=O)O)NC(=N)N (stereo not shown) [Comparative Example 3, 4-guanidino-5-(((9Z,27Z)-hexatriaconta-9,27-dien-18-yl)oxy)-5-oxopentanoic acid, reference compound] | Δ (when the obtained value was more than 1.0 and less than 6.0, a rating of triangle (fair) was given) | – | –
CCCCCCCC/C=C\CCCCCCCCC(CCCCCCC/C=C\CCCCCCCC)OC(=O)C(CC(=O)O)NC(=O)C(N)CCCNC(=N)N (stereo not shown) [Example 1, 3-(2-amino-5-guanidinopentanamido)-4-(((9Z,27Z)-hexatriaconta-9,27-dien-18-yl)oxy)-4-oxobutanoic acid] | ⊚ (When the obtained value was 0.50 or less, a rating of double-circle (excellent) was given) | 5,000 | 100,000
CCCCCCCC/C=C\CCCCCCCCC(CCCCCCC/C=C\CCCCCCCC)OC(=O)C(CCC(=O)O)NC(=O)C(N)CCCNC(=N)N (stereo not shown) [Example 2, 4-(2-amino-5-guanidinopentanamido)-5-(((9Z,27Z)-hexatriaconta-9,27-dien-18-yl)oxy)-5-oxopentanoic acid] | ⊚ (When the obtained value was 0.50 or less, a rating of double-circle (excellent) was given) | 25,000 | 800,000
CCCCCCCC/C=C\CCCCCCCCC(CCCCCCC/C=C\CCCCCCCC)OC(=O)C(CO)NC(=O)C(N)CCCNC(=N)N [Example 4, (9Z,27Z)-hexatriaconta-9,27-dien-18-yl (2S)-2-((S)-2-amino-5-guanidinopentanamido)-3-hydroxypropionate] | Δ (when the obtained value was more than 1.0 and less than 6.0, a rating of triangle (fair) was given) | – | –
CCCCCCCC/C=C\CCCCCCCCC(CCCCCCC/C=C\CCCCCCCC)OC(=O)C(NC(=O)C(N)CCCNC(=N)N)C(C)O [Example 5, (9Z,27Z)-hexatriaconta-9,27-dien-18-yl (2S)-2-((S)-2-amino-5-guanidinopentanamido)-3-hydroxybutanoate] | ⊚ (When the obtained value was 0.50 or less, a rating of double-circle (excellent) was given) | 60,000 | 100,000
CCCCCCCC/C=C\CCCCCCCCC(CCCCCCC/C=C\CCCCCCCC)OC(=O)[C@H](CCSC)NC(=O)[C@@H](N)CCCNC(=N)N (stereo partly shown) [Example 6, (9Z,27Z)-hexatriaconta-9,27-dien-18-yl arginylmethioninate] | ◯ (when the obtained value was more than 0.50 and 1.0 or less, a rating of circle (good) was given) | – | –
